Among the data in DBAASP are MIC values, retold here.

Test in all cases: ≥ marks a high value that may be exact or a test limit, other limits are often not marked, values filed in µg/mL are converted to µM
Assay [1] deals with Acinetobacter baumannii ATCC 17978.
The test system of assay [2] is Bacillus subtilis ATCC 13933.
Assay [3] relates to Candida albicans ATCC 90028.
The test system of assay [4] is Escherichia coli ATCC 700928.
The test system of assay [5] is Escherichia coli NCTC 12923.
Assay [6] has as its system Klebsiella pneumoniae NCTC 13368.
The test system of assay [7] is Pseudomonas aeruginosa PAO1.
Assay [8] relates to Staphylococcus aureus ATCC 9144.
Assay [9] has as its system Staphylococcus aureus USA 300.
In assay [10] the test system is Bacillus subtilis PS832.
Assay [11] relates to Escherichia coli MG1655.
Assay [12] deals with Acinetobacter baumannii ATCC 19606.
Assay [13] deals with Acinetobacter baumannii.
The subject of assay [14] is Bacillus subtilis ATCC 23857.
The subject of assay [15] is Enterococcus faecalis ATCC 29212.
Assay [16] has as its system Escherichia coli 780.
Assay [17] has as its system Escherichia coli 850.
The test system of assay [18] is Escherichia coli ATCC 25922.
Assay [19] has as its system Klebsiella pneumoniae ATCC 700603.
For assay [20], the system named is Pseudomonas aeruginosa 2760.
Assay [21] relates to Pseudomonas aeruginosa ATCC 27853.
Assay [22] relates to Staphylococcus aureus 725.
The test system of assay [23] is Staphylococcus aureus 936.
Assay [24] relates to Staphylococcus aureus ATCC 25923.
The subject of assay [25] is Escherichia coli K12 MG1655.
Assay [26] concerns Staphylococcus aureus 68 HER 1049.
Assay [27] deals with Enterococcus faecium.
The subject of assay [28] is Staphylococcus aureus K35.
Assay [29] has as its system Staphylococcus aureus K52.
In assay [30] the test system is Escherichia coli DH5alpha.
In assay [31] the test system is Escherichia coli NBRC 14237.
Assay [32] has as its system Micrococcus luteus NBRC 12708.
Assay [33] concerns Pseudomonas aeruginosa NBRC 12582.
For assay [34], the system named is Staphylococcus aureus JCM 2151.
For assay [35], the system named is Staphylococcus aureus NBRC 12732.

Values after ≈ are worked out from the molar mass of the structure shown. Bounds are passed on as bounds.

With `CC[C@H](C)[C@H](NC(=O)CNC(=O)[C@@H](N)CCCCN)C(=O)N[C@@H](CCCN=C(N)N)C(=O)NCC(=O)N[C@@H](Cc1ccc(O)cc1)C(=O)N[C@@H](CCCCN)C(=O)NCC(=O)NCC(=O)N[C@@H](Cc1ccc(O)cc1)C(=O)N[C@@H](CS)C(=O)N[C@@H](CCCCN)C(=O)NCC(=O)N[C@@H](C)C(=O)N[C@@H](Cc1ccccc1)C(=O)N[C@@H](CCCCN)C(=O)N[C@@H](CCC(N)=O)C(=O)N[C@H](C(=O)N[C@@H](CS)C(=O)N[C@@H](CCCCN)C(=O)N[C@@H](CS)C(=O)N[C@@H](Cc1ccc(O)cc1)C(=O)O)[C@@H](C)O` [KGIRGYKGGYCKGAFKQTCKCY], the MIC is at least 52 µM in assay [1]; at least 48.8 µM in [2]; 1.9 µM (≈ 4.67 µg/mL) in assay [3]; at least 48.8 µM in assay [4]; at least 52 µM in assay [5]; at least 52 µM in [6]. The figures for the MIC in assay [7], in assay [8] and in [9] were over 52 µM, at least 52 µM and at least 52 µM, respectively.
For the molecule `CC[C@H](C)[C@H](NC(=O)[C@H](CCCN=C(N)N)NC(=O)[C@H](CCCCN)NC(=O)[C@H](CC(C)C)NC(=O)[C@H](CC(C)C)NC(=O)CNC(=O)[C@H](Cc1cnc[nH]1)NC(=O)[C@H](CCCCN)NC(=O)[C@@H](N)CC(C)C)C(=O)N[C@@H](CCCCN)C(=O)N[C@H](C(=O)N[C@@H](CC(C)C)C(=O)N[C@@H](CC(C)C)C(N)=O)[C@@H](C)O` [LKHGLLKRIKTLL], the MIC in assay [10] and in assay [11] was 8 µM (≈ 12.3 µg/mL) in each case.
`CC[C@H](C)[C@H](NC(=O)[C@H](CCCCN)NC(=O)[C@H](CCCCN)NC(=O)[C@@H]1CCCN1C(=O)[C@H](CC(C)C)NC(=O)[C@H](CCCCN)NC(=O)[C@H](C)NC(=O)[C@H](CC(C)C)NC(=O)[C@@H]1CCCN1C(=O)[C@H](CCCCN)NC(=O)[C@H](CC(C)C)NC(=O)[C@H](CC(N)=O)NC(=O)[C@@H](NC(=O)[C@H](CCCCN)NC(=O)[C@@H]1CCCN1C(=O)[C@H](CC(C)C)NC(=O)[C@H](CC(C)C)NC(=O)[C@H](Cc1ccc(O)cc1)NC(=O)CNC(=O)[C@H](C)N)[C@@H](C)CC)C(=O)N[C@@H](CC(C)C)C(N)=O` [AGYLLPKINLKPLAKLPKKIL]: the MIC in [12] is 54.9 µM (≈ 128 µg/mL); in [13], at least 54.9 µM; in assay [14], at least 54.9 µM; in assay [15], over 54.9 µM; in assay [16] it was at least 54.9 µM; in [17], at least 54.9 µM. The MIC in assay [18] was over 54.9 µM; in assay [19], over 54.9 µM; in assay [20], at least 54.9 µM; in assay [21], 54.9 µM (≈ 128 µg/mL); in [22], at least 54.9 µM; in assay [23], at least 54.9 µM. In addition, the MIC in assay [24] is over 54.9 µM.
`CC[C@H](C)[C@H](NC(=O)[C@H](CCCN=C(N)N)NC(=O)[C@H](CCCN=C(N)N)NC(=O)[C@H](CC(C)C)NC(=O)[C@H](CCCCN)NC(=O)[C@H](CCCCN)NC(=O)[C@H](Cc1c[nH]c2ccccc12)NC(=O)[C@H](CCCCN)NC(=O)[C@H](CCCCN)NC(=O)[C@H](Cc1c[nH]c2ccccc12)NC(=O)[C@@H](N)Cc1ccc(O)cc1)C(=O)N[C@@H](Cc1ccccc1)C(=O)N[C@@H](CCSC)C(=O)N[C@@H](CC(C)C)C(=O)N[C@H](C(=O)O)C(C)C` [YWKKWKKLRRIFMLV]: the MIC in assay [25] was determined as 0.954 µM (≈ 2 µg/mL); in assay [26], 3.82 µM (≈ 8 µg/mL).
As to `CC(C)C[C@H](NC(=O)[C@H](CC(C)C)NC(=O)CNC(=O)[C@H](CO)NC(=O)[C@H](CC(C)C)NC(=O)[C@@H](NC(=O)[C@H](CCCN=C(N)N)NC(=O)CNC(=O)[C@H](CC(C)C)NC(=O)[C@H](CC(C)C)NC(=O)[C@@H]1CCCN1C(=O)[C@H](CC(C)C)NC(=O)[C@@H](N)Cc1ccccc1)C(C)C)C(N)=O` [FLPLLGRVLSGLL], the minimal inhibitory concentration (MIC) in assay [15] was 10.5 µM (≈ 14.7 µg/mL); in assay [27], 5.6 µM (≈ 7.82 µg/mL); in assay [24], 5.2 µM (≈ 7.26 µg/mL); in [28], 2.8 µM (≈ 3.91 µg/mL); in [29], 2.8 µM (≈ 3.91 µg/mL).
On to `CC[C@H](C)[C@H](NC(=O)[C@@H](N)Cc1ccccc1)C(=O)NCC(=O)N[C@@H](C)C(=O)N[C@@H](CC(C)C)C(=O)N[C@@H](CC(C)C)C(=O)N[C@@H](CCCN=C(N)N)C(=O)N1CCC[C@H]1C(=O)N[C@@H](C)C(=O)N[C@@H](CC(C)C)C(=O)N[C@@H](CCCCN)C(=O)N[C@@H](CC(C)C)C(=O)N[C@@H](CC(C)C)C(=O)N[C@@H](C)C(N)=O` [FIGALLRPALKLLA], for which the MIC was at least 33.4 µM in assay [30]; 12.5 µM (≈ 18.7 µg/mL) in assay [31]; 25 µM (≈ 37.4 µg/mL) in assay [32]; at least 50 µM in [33]; 6.48 µM (≈ 9.69 µg/mL) in [34]; 12.5 µM (≈ 18.7 µg/mL) in [35].

One may read the MIC as the smallest concentration in the dilution series that meets the test's criterion for growth inhibition.
